# Experimental data: US8114862B2, “TGR5 modulators and methods of use thereof” (Intercept Pharmaceuticals, Inc., priority 2008, dated 2012)
# “And” between values parts separate entries of the source, which are not always exact repeats. Equal entries are not always repeated.
# Assays:
# [1] = Critical micellar concentration by surface tension; assay type: physicochemical; details: […] NaCl water solution
# Description: The critical micellar concentration (CMC) was determined by surface tension (ST) measurements using a maximum bubble-pressure method which give surface tension values […] by potential impurities like static methods are. The tensiometer was a […] Research Corp., Milwaukee, Wis.) equipped with two glass probes of 0.5 and 4.0 mm diameters connected to a source of nitrogen. […] The surface tension values were plotted against the logarithm of the bile salt concentration; the regression lines corresponding to the two parts of the curve (monomeric and micellar phases) were calculated using the method of least squares, and the intersection of the lines was taken as the CMC value. From the ST vs concentration curves the value of the surface tension at the CMC (equilibrium between monomers and multimers species) was also calculated giving information about the detergency power which is related to the size of the micelles with associate surface tension lowering capacity. The CMC was evaluated by surface tension measurements in non equilibrium conditions i.e. in conditions that impurities slightly affect the surface tension results (FIG. 10).
# [2] = Octanol/water partition coefficient (shake-flask); assay type: physicochemical; details: pH 8
# Description: Since the sulphate and sulphonated analogues are always ionised at all pH values the octanol/water partition coefficient was measured for all molecules in ionized form and therefore the carboxy analogues were studied at high pH. 1-Octanol/water partition coefficient (log P) was evaluated using a conventional shake-flask procedure. […] The aqueous buffer was previously pre-saturated with 1-octanol, 5 ml of 1-octanol pre-saturated with water was then added and the samples were left to equilibrate for 2 weeks under continuous stirring at room temperature After centrifugation the two phases were carefully separated. […] The mass spectrometry acquisition was performed in the multiple reaction monitoring mode using the ESI source in negative ionization.
# intestinal bacteria = experiment: Metabolic stability in human stool culture (7α-dehydroxylation); assay type: in vitro ADME
# Description: Homogenized fresh human stools (500 mg) were transferred into sterile vials to which 5 mL of sterilized chopped meat-glucose medium (Scott Lab., Fiskville, R.I.) was added. BA was then added at a final concentration of 0.05 mM. […] The samples were centrifuged at 3500 rpm for 10 min; from the supernatant the BA were isolated by C-18 solid-phase extraction and analyzed by TLC and HPLC-ES-MS/MS.
# Thin-layer chromatography (TLC), utilizing silica gel 0.25 mm thickness plates (Merck, Darmstat, Germany), was employed as the first screening test. The solvent system used for the separation of conjugated BA was composed of propionic acid/isoamyl acetate/water/N-propanol (3:4:1:2, v/v/v/v; solvent I), and that of the unconjugated BA was acetic acid/carbon tetrachloride/isopropyl ether/isoamyl acetate/water/N-propanol/benzene (1:4:6:8:2:2, v/v/v/v/v/v; solvent II).
# LXRα = target: T1, LXRα (Homo sapiens, UniProt Q13133); experiment: LXR coactivator recruitment (alphascreen); assay type: biochemical
# T1 sequence (Q13133 1-447): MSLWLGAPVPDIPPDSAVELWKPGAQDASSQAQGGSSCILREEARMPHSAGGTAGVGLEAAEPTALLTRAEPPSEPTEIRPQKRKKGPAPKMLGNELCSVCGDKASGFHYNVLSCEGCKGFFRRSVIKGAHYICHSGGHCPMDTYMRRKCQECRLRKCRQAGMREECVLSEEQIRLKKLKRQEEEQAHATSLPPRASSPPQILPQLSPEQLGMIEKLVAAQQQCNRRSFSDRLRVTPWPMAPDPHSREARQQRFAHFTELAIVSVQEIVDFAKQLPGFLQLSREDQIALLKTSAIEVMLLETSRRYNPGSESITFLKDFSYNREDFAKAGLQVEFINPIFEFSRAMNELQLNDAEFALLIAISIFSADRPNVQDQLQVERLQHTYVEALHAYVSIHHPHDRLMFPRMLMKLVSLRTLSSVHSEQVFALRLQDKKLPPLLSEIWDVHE
# [3] = Biliary secretion and hepatic metabolism in bile fistula rat after femoral infusion (Example 22); assay type: in vivo; details: after iv administration
# Description: In order to clarify this point the two pure isomers were administered by femoral infusion (i.v.) to a bile fistula rat model at a single dose of 1 μmol/min/kg bw for 1 hour and bile samples were collected for 3 hours. The effect on bile flow, on biliary secretion of the parent compound and of the main metabolite were also evaluated.
# Bile samples collected at different times during the iv experiments were analyzed to determine the biliary secretions of the administered isomers and their main metabolites recovered in bile.
# When samples were found out of linearity range, they were diluted and reanalyzed.
# Rat bile samples were analyzed by HPLC-ESI-MS/MS using the ESI source in negative ionization mode. […] The autosampler was maintained at 7° C. […] Capillary voltage was 3.0 kV.
# Calibration samples were obtained in the 0.1-20 μmol/L concentration range prepared in the mobile phase. […] Finally, calibration curves obtained for the free BA were used to estimate taurine conjugated metabolites.
# VDR = target: T2, VDR (Homo sapiens, UniProt P11473); experiment: VDR coactivator recruitment assay
# T2 sequence (P11473 127-423 limits assumed): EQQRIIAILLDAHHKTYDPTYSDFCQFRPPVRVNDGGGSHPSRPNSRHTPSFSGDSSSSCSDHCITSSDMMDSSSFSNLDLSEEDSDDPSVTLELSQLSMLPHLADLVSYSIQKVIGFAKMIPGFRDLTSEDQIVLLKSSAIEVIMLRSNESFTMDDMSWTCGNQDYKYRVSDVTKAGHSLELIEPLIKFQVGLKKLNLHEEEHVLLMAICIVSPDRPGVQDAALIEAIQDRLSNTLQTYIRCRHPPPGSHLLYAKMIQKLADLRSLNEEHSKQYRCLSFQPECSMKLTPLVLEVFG
# Description: Lanthascreen assay (Invitrogen) was used for nulear receptor selectivity assay. The kit uses a terbium-labeled anti-GST antibody, a fluorescein-labeled coactivator peptide, and a NR ligand-binding domain that is tagged with glutathione-S-transferase (GST) in a homogenous mix-and-read assay format. […] Following 1 hour incubation in the dark, TR-FRET measurements were made in the Envision. […] The data was analyzed using GraphPad Prism using the sigmoidal curve equation with variable slope to obtain EC50 values.
# [4] = Stability in human liver microsomes; details: liver microsomes
# PXR = PXR (Homo sapiens, UniProt O75469); experiment: PXR ligands competition assay (binding assay)
# [5] = Biliary secretion and metabolism in bile fistula rat, id and iv infusion; details: for Conc. / Secretion: rat bile; for fraction unbound at 4 h: rat, in vivo, 1 μmol/kg/min
# [6] = duodenal infusion 75-135 min, time 90 min
# [7] = duodenal infusion 75-135 min, time 120 min
# [8] = duodenal infusion 75-135 min, time 150 min
# [9] = duodenal infusion 75-135 min, time 180 min
# [10] = duodenal infusion 75-135 min, time 210 min
# [11] = duodenal infusion 75-135 min, time 240 min
# [12] = duodenal infusion 75-135 min, time 270 min
# [13] = duodenal infusion 75-135 min, time 300 min
# [14] = femoral infusion 75-135 min, time 90 min
# [15] = femoral infusion 75-135 min, time 120 min
# [16] = femoral infusion 75-135 min, time 150 min
# [17] = femoral infusion 75-135 min, time 180 min
# [18] = femoral infusion 75-135 min, time 210 min
# [19] = femoral infusion 75-135 min, time 240 min
# [20] = femoral infusion 75-135 min, time 270 min
# Sequence of PXR (O75469 whole entry, species assumed, the tested form may be a part): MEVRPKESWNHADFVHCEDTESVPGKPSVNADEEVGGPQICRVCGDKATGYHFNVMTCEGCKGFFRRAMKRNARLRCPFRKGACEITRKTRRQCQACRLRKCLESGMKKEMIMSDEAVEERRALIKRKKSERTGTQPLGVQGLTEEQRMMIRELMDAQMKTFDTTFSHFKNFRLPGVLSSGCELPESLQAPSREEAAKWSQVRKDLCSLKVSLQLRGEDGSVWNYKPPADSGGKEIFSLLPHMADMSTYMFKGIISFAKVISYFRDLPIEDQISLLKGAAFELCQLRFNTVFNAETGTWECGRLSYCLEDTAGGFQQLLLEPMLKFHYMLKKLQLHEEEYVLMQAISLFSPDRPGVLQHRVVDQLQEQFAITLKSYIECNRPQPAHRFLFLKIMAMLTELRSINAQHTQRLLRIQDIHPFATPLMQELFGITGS
smiles,measurement,setting,value
"CC[C@H]1[C@@H](O)[C@@H]2[C@H](C[C@H](O)[C@]3(C)[C@@H]([C@H](C)C[C@H](C)C(=O)O)CC[C@@H]23)[C@@]2(C)CC[C@@H](O)C[C@@H]12 [Ih3e, 6α-ethyl-(23S)-methyl-3α,7α,12α trihydroxy-5β-cholan-24-oic acid]",CMC […] Na+,[1],1.4 mM
same,STCMC (surface tension at CMC),[1],50.1 Dyne/cm
same,"LogPA- (1-octanol-water partition coefficient, ionized species)",[2],1.4 and 1.44
same,7-dehydroxylation and intermediate formation of a 7-oxo derivative,intestinal bacteria,practically abolished
same,side chain stability to intestinal bacteria enzymatic activities,intestinal bacteria,not modified
same,compound recovered unmodified,intestinal bacteria; after 24 hour incubation,more than 85%
same,compound unmodified,"intestinal bacteria; human, 12 h, 0.05 mM",more than 95%
same,LXRα Activation EC50,LXRα,No activity
same,biliary secretion,[3],efficient
same,VDR Activation EC50,VDR,No activity
same,half-life,[4],32.4 h
same,IC50,PXR,110 µM
same,compound secreted into the bile in its unconjugated form,[5]; after intravenous or intraduodenal infusion,more than 90%
same,biliary secretion,[5]; after iv administration,efficient
same,recovery in bile after id administration,[5]; id vs iv,slightly lower than the recovery after iv administration
same,Conc.,[5]; [6],7 µM
same,Secretion,[5]; [6],0.0003 µmol/kg/min
same,Conc.,[5]; [7],690 µM
same,Secretion,[5]; [7],0.057 µmol/kg/min
same,Conc.,[5]; [8],1880 µM
same,Secretion,[5]; [8],0.167 µmol/kg/min
same,Conc.,[5]; [9],1290 µM
same,Secretion,[5]; [9],0.150 µmol/kg/min
same,Conc.,[5]; [10],790 µM
same,Secretion,[5]; [10],0.077 µmol/kg/min
same,Conc.,[5]; [11],390 µM
same,Secretion,[5]; [11],0.033 µmol/kg/min
same,Conc.,[5]; [12],270 µM
same,Secretion,[5]; [12],0.026 µmol/kg/min
same,Conc.,[5]; [13],200 µM
same,Secretion,[5]; [13],0.015 µmol/kg/min
same,Conc.,[5]; [14],1900 µM
same,Secretion,[5]; [14],0.1 µmol/kg/min
same,Conc.,[5]; [15],3100 µM
same,Secretion,[5]; [15],0.23 µmol/kg/min
same,Conc.,[5]; [16],3400 µM
same,Secretion,[5]; [16],0.31 µmol/kg/min
same,Conc.,[5]; [17],2300 µM
same,Secretion,[5]; [17],0.2 µmol/kg/min
same,Conc.,[5]; [18],1060 µM
same,Secretion,[5]; [18],0.105 µmol/kg/min
same,Conc.,[5]; [19],550 µM
same,Secretion,[5]; [19],0.049 µmol/kg/min
same,Conc.,[5]; [20],270 µM
same,Secretion,[5]; [20],0.018 µmol/kg/min
same,fraction unbound at 4 h,[5],0.94 ± 0.06
same,fraction unbound at 4 h,[5]; iv,0.93
